Measured values reported in US7524823B2, “Macrolides” (Basilea Pharmaceutica AG, priority 2005, dated 2009).
Values after ≈ are worked out from the molar mass of the structure shown.

Key:
Assay type in all cases: cell-based
[1] = tested on: Staphylococcus aureus 1086; test: MIC by broth microdilution (CAMHB, NCCLS); conditions: code B: Staphylococcus aureus 1086
Description: (§1) MIC values for non-anaerobes were obtained by broth microdilution using CAMHB (BBL) according to NCCLS guidelines (National Committee for Clinical Laboratory Standards. Methods for dilution antimicrobial susceptibility tests for bacteria that grow aerobically, 5th ed. Approved standard M7-A6. NCCLS, Wayne, Pa., 2003). Drugs were dissolved in DMSO prior to dispensing into 96-well microtitre plates; the concentration of DMSO in assay wells never exceeded 2% (v/v). CAMHB was supplemented with 5% (v/v) horse serum (Sigma, cat. no. H-1270) in lieu of laked horse blood for cultivation of Streptococcus pneumoniae, and with 5% (v/v) Fildes enrichment (BBL, cat. no. 220810) supernate in lieu of Haemophilus Test Medium and additives for cultivation of Haemophilus influenzae (Pankuch G A, Hoellman D B, Lin G, Bajaksouzian S, Jacobs M R, Appelbaum P C. Activity of HMR 3647 compared to those of five agents against Haemophilus influenzae and Moraxella catarrhalis by MIC determination and time-kill assay. Antimicrob. Agents Chemother. November 1998; 42(11): 3032-4). Activities expressed as the minimal inhibitory concentrations (MICs) (μg/ml) are given in the following Table 3, and the microorganisms used for testing are listed in Table 2 below.

[2] = tested on: Escherichia coli ATCC 25922; test: MIC by broth microdilution (CAMHB, NCCLS); conditions: code C: Escherichia coli ATCC 25922
Description: as §1

[3] = tested on: Staphylococcus aureus ATCC 29213; test: MIC by broth microdilution (CAMHB, NCCLS); conditions: code A: Staphylococcus aureus ATCC 29213
Description: as §1

[4] = tested on: Propionibacterium acnes EG7NS; test: MIC by anaerobic broth microdilution (WCB, NCCLS); conditions: code I: Propionibacterium acnes EG7NS; anaerobic, 35-37° C., 48 h
Description: (§2) MIC values towards strains of propionibacteria were obtained by broth microdilution using WCB (Anaerobe Broth MIC, Difco) according to NCCLS guidelines (National Committee for Clinical Laboratory Standards. Methods for anti-microbial susceptibility testing of anaerobic bacteria, 5th ed.; approved standard. NCCLS publication no. M11-A5. NCCLS, Wayne, Pa., 2001). Microtitre plates were loaded into 7-L GENbox anaerobic incubation jars (BioMérieux, cat. no. 96 128) fitted with anaerobic atmosphere generators (BioMérieux, cat. no. 96 124) and a Dry Anaerobic Indicator Strip (BBL, cat. no. 271051). Under these conditions, an O2 concentration <0.1% was achieved by 2.5 h, and a CO2 concentration >15% by 24 h. MIC values were read after incubation at 35-37° C. for 48 h (Table 3).

[5] = tested on: Propionibacterium acnes SW101T; test: MIC by anaerobic broth microdilution (WCB, NCCLS); conditions: code K: Propionibacterium acnes SW101T, 35-37° C., 48 h
Description: as §2

[6] = tested on: Streptococcus pneumoniae Tupelo; test: MIC by broth microdilution (CAMHB + 5% horse serum, NCCLS); conditions: code F: Streptococcus pneumoniae Tupelo
Description: as §1

[7] = tested on: Streptococcus pneumoniae 1/1; test: as above; conditions: code D: Streptococcus pneumoniae 1/1
Description: as §1

[8] = tested on: Streptococcus pneumoniae SL199T; test: as above; conditions: code E: Streptococcus pneumoniae SL199T
Description: as §1

[9] = tested on: Haemophilus influenzae 12214; test: MIC by broth microdilution (CAMHB + 5% Fildes enrichment, NCCLS); conditions: code G: Haemophilus influenzae 12214
Description: as §1

[10] = tested on: Haemophilus influenzae QK50; test: as above; conditions: code H: Haemophilus influenzae QK50
Description: as §1

SMILES	MIC [1]	MIC [2] [µg/mL]	MIC [3] [µg/mL]	MIC [4]	MIC [5] [µg/mL]	MIC [6] [µg/mL]	MIC [7]	MIC [8] [µg/mL]	MIC [9] [µg/mL]	MIC [10] [µg/mL]
CC[C@H]1OC(=O)[C@H](C)[C@@H](O[C@H]2C[C@@](C)(OC)[C@@H](O)[C@H](C)O2)[C@H](C)[C@@H](O[C@@H]2O[C@H](C)C[C@H](N(C)C)[C@H]2O)[C@](C)(OC)C[C@@H](C)C(=O)[C@H](C)[C@H]2[C@H](SCCn3cncn3)C(=O)O[C@@]21C [Example 18]	>=32 μg/ml	32 (≈ 35.6 µM)	1 (≈ 1.11 µM)	<=0.06 μg/ml	>32	4	<=0.06 μg/ml	2	2	2
CC[C@H]1OC(=O)[C@H](C)[C@@H](O[C@H]2C[C@@](C)(OC)[C@@H](O)[C@H](C)O2)[C@H](C)[C@@H](O[C@@H]2O[C@H](C)C[C@H](N(C)C)[C@H]2O)[C@](C)(OC)C[C@@H](C)C(=O)[C@H](C)[C@H]2[C@H](SCCn3cnc4ccccc43)C(=O)O[C@@]21C [Example 19]	>32 µg/mL	>32	1 (≈ 1.05 µM)	<=0.06 μg/ml	4 (≈ 4.22 µM)	1	<=0.06 μg/ml	0.5	2	2
CC[C@H]1OC(=O)[C@H](C)[C@@H](O[C@H]2C[C@@](C)(OC)[C@@H](O)[C@H](C)O2)[C@H](C)[C@@H](O[C@@H]2O[C@H](C)C[C@H](N(C)C)[C@H]2O)[C@](C)(OC)C[C@@H](C)C(=O)[C@H](C)[C@H]2[C@H](SCCn3cnc4cncnc43)C(=O)O[C@@]21C [Example 20]	>32 µg/mL	>32	1 (≈ 1.05 µM)	<=0.06 μg/ml	8 (≈ 8.42 µM)	1	<=0.06 μg/ml	0.5	1	1
CC[C@H]1OC(=O)[C@H](C)[C@@H](O[C@H]2C[C@@](C)(OC)[C@@H](O)[C@H](C)O2)[C@H](C)[C@@H](O[C@@H]2O[C@H](C)C[C@H](N(C)C)[C@H]2O)[C@](C)(OC)C[C@@H](C)C(=O)[C@H](C)[C@H]2[C@H](SCC(=O)Nc3ccc(C)c(C)c3)C(=O)O[C@@]21C [Example 22]	32 µg/mL (≈ 33.2 µM)	>32	2 (≈ 2.07 µM)	<=0.06 μg/ml	32 (≈ 33.2 µM)	8	<=0.06 μg/ml	8	8	8
CC[C@H]1OC(=O)[C@H](C)[C@@H](O[C@H]2C[C@@](C)(OC)[C@@H](O)[C@H](C)O2)[C@H](C)[C@@H](O[C@@H]2O[C@H](C)C[C@H](N(C)C)[C@H]2O)[C@](C)(OC)C[C@@H](C)C(=O)[C@H](C)[C@H]2[C@H](SCC(=O)Nc3ccc(C(=O)OC)c(OC)c3)C(=O)O[C@@]21C [Example 24]	>=32 μg/ml	>32	1 (≈ 0.975 µM)	<=0.06 μg/ml	>32	8	<=0.06 μg/ml	4	8	8
CC[C@H]1OC(=O)[C@H](C)[C@@H](O[C@H]2C[C@@](C)(OC)[C@@H](O)[C@H](C)O2)[C@H](C)[C@@H](O[C@@H]2O[C@H](C)C[C@H](N(C)C)[C@H]2O)[C@](C)(OC)C[C@@H](C)C(=O)[C@H](C)[C@H]2[C@H](SCC(=O)c3ccc(OC)cc3OC)C(=O)O[C@@]21C [Example 27]	>32 µg/mL	>32	1 (≈ 1.02 µM)	<=0.06 μg/ml	>32	4	<=0.06 μg/ml	4	8	8

Other lines, results leading:

MIC [1]	MIC [2] [µg/mL]	MIC [3] [µg/mL]	MIC [4]	MIC [5] [µg/mL]	MIC [6] [µg/mL]	MIC [7]	MIC [8] [µg/mL]	MIC [9] [µg/mL]	MIC [10] [µg/mL]	SMILES
>32 µg/mL	>32	1 (≈ 1.03 µM)	<=0.06 μg/ml	16 (≈ 16.4 µM)	1	<=0.06 μg/ml	0.5	4	4	CC[C@H]1OC(=O)[C@H](C)[C@@H](O[C@H]2C[C@@](C)(OC)[C@@H](O)[C@H](C)O2)[C@H](C)[C@@H](O[C@@H]2O[C@H](C)C[C@H](N(C)C)[C@H]2O)[C@](C)(OC)C[C@@H](C)C(=O)[C@H](C)[C@H]2[C@H](SCCn3ccc(-c4cccnc4)n3)C(=O)O[C@@]21C [Example 17]
>32 µg/mL	>32	2 (≈ 2.09 µM)	<=0.06 μg/ml	4 (≈ 4.18 µM)	2	<=0.06 μg/ml	0.5	4	4	CC[C@H]1OC(=O)[C@H](C)[C@@H](O[C@H]2C[C@@](C)(OC)[C@@H](O)[C@H](C)O2)[C@H](C)[C@@H](O[C@@H]2O[C@H](C)C[C@H](N(C)C)[C@H]2O)[C@](C)(OC)C[C@@H](C)C(=O)[C@H](C)[C@H]2[C@H](SCCn3cc(C)c(=O)[nH]c3=O)C(=O)O[C@@]21C [Example 21]
32 µg/mL (≈ 32.9 µM)	>32	2 (≈ 2.06 µM)	<=0.06 μg/ml	32 (≈ 32.9 µM)	2	<=0.06 μg/ml	2	4	4	CC[C@H]1OC(=O)[C@H](C)[C@@H](O[C@H]2C[C@@](C)(OC)[C@@H](O)[C@H](C)O2)[C@H](C)[C@@H](O[C@@H]2O[C@H](C)C[C@H](N(C)C)[C@H]2O)[C@](C)(OC)C[C@@H](C)C(=O)[C@H](C)[C@H]2[C@H](SCC(=O)Nc3ccc(F)cc3F)C(=O)O[C@@]21C [Example 23]
16 µg/mL (≈ 16.2 µM)	>32	1 (≈ 1.01 µM)	<=0.06 μg/ml	4 (≈ 4.05 µM)	0.5	<=0.06 μg/ml	1	4	4	CC[C@H]1OC(=O)[C@H](C)[C@@H](O[C@H]2C[C@@](C)(OC)[C@@H](O)[C@H](C)O2)[C@H](C)[C@@H](O[C@@H]2O[C@H](C)C[C@H](N(C)C)[C@H]2O)[C@](C)(OC)C[C@@H](C)C(=O)[C@H](C)[C@H]2[C@H](SCC(=O)Nc3cccc4cccnc34)C(=O)O[C@@]21C [Example 25]
>32 µg/mL	>32	2 (≈ 2.01 µM)	0.125 µg/mL (≈ 0.126 µM)	>32	>32	0.125 µg/mL	>32	>32	16	CC[C@H]1OC(=O)[C@H](C)[C@@H](O[C@H]2C[C@@](C)(OC)[C@@H](O)[C@H](C)O2)[C@H](C)[C@@H](O[C@@H]2O[C@H](C)C[C@H](N(C)C)[C@H]2O)[C@](C)(OC)C[C@@H](C)C(=O)[C@H](C)[C@H]2[C@H](SCC(=O)c3ccc(N(CC)CC)cc3)C(=O)O[C@@]21C [Example 26]
